Data published in PubChem BioAssay AID1963984 (Molecular Pharmacology Branch, DTP, NCI, 2024).

Test system: 233499-124-R-J3-PDC spheroids with HUVEC/MSC, viability
Experiment: Anticancer human tumor 233499-124-R-J3-PDC patient-derived colon adenocarcinoma cell line growth inhibition [PI3K]
Details: for IC50: curve of first compound; for viability, T/C: stronger effect = lower value; active means viability on the fitted dose curve at most 10% of control; inactive means the rest
Method in brief: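 Stroma-containing spheroids: tumor line, pooled-donor HUVEC, hMSC. Treatments: targeted agents with PI3K inhibitors. Dosing: clinically relevant, half-log spacing, 10 microM ceiling without known Cmax. Read-out: cell viability.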

[1] = second compound 0.0316 µM, first compound 0.0316 µM
[2] = second compound 0.0316 µM, first compound 0.1 µM
[3] = second compound 0.1 µM, first compound 0.0316 µM
[4] = second compound 0.1 µM, first compound 0.1 µM
[5] = second compound 0.316 µM, first compound 0.0316 µM
[6] = second compound 0.316 µM, first compound 0.1 µM
[7] = second compound 1 µM, first compound 0.0316 µM
[8] = second compound 1 µM, first compound 0.1 µM
[9] = second compound 3.16 µM, first compound 0.0316 µM
[10] = second compound 3.16 µM, first compound 0.1 µM
[11] = second compound 10 µM, first compound 0.0316 µM
[12] = second compound 10 µM, first compound 0.1 µM
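Further: spheroids exposed to agents for seven days before readout.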
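Wherever viability, T/C is given: percent viability relative to DMSO vehicle control taken as 100%.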

CC(C)n1nc(-c2ccc3oc(N)nc3c2)c2c(N)ncnc21 + CC(Nc1ncnc2nc[nH]c12)c1cc2cccc(Cl)c2c(=O)n1-c1ccccc1
> 0.1 µM: IC50 (second compound 0.316 µM) | IC50 (second compound 3.16 µM)
0.0893 µM: IC50 (second compound 0.1 µM)
inactive: viability, T/C (second compound 0.0316 µM, first compound 0.000316 µM) 108% | viability, T/C (second compound 0.0316 µM, first compound 0.001 µM) 90.8% | viability, T/C (second compound 0.0316 µM, first compound 0.00316 µM) 104% | viability, T/C (second compound 0.0316 µM, first compound 0.01 µM) 79.4% | viability, T/C [1] 73.2% | viability, T/C [2] 44.5% | viability, T/C (second compound 0.1 µM, first compound 0.000316 µM) 96.3% | viability, T/C (second compound 0.1 µM, first compound 0.001 µM) 85.1% | viability, T/C (second compound 0.1 µM, first compound 0.00316 µM) 97.8% | viability, T/C (second compound 0.1 µM, first compound 0.01 µM) 79.3% | viability, T/C [3] 84.2% | viability, T/C [4] 45.9% | viability, T/C (second compound 0.316 µM, first compound 0.000316 µM) 93.2% | viability, T/C (second compound 0.316 µM, first compound 0.001 µM) 82.6% | viability, T/C (second compound 0.316 µM, first compound 0.00316 µM) 83.3% | viability, T/C (second compound 0.316 µM, first compound 0.01 µM) 95.9% | viability, T/C [5] 75.2% | viability, T/C [6] 81.7% | viability, T/C (second compound 1 µM, first compound 0.000316 µM) 88.5% | viability, T/C (second compound 1 µM, first compound 0.001 µM) 82.2% | viability, T/C (second compound 1 µM, first compound 0.00316 µM) 104% | viability, T/C (second compound 1 µM, first compound 0.01 µM) 93% | viability, T/C [7] 83.2% | viability, T/C [8] 43.3% | viability, T/C (second compound 3.16 µM, first compound 0.000316 µM) 83.4% | viability, T/C (second compound 3.16 µM, first compound 0.001 µM) 89.5% | viability, T/C (second compound 3.16 µM, first compound 0.00316 µM) 107% | viability, T/C (second compound 3.16 µM, first compound 0.01 µM) 67.7% | viability, T/C [9] 74.3% | viability, T/C [10] 64.8% | viability, T/C (second compound 10 µM, first compound 0.000316 µM) 82.4% | viability, T/C (second compound 10 µM, first compound 0.001 µM) 96.2% | viability, T/C (second compound 10 µM, first compound 0.00316 µM) 88.3% | viability, T/C (second compound 10 µM, first compound 0.01 µM) 79.7% | viability, T/C [11] 78.8% | viability, T/C [12] 47.2%
0.0811 µM: IC50 (second compound 0.0316 µM)
0.0909 µM: IC50 (second compound 10 µM)
0.083 µM: IC50 (second compound 1 µM)

CC1(C)CCC(CN2CCN(c3ccc(C(=O)NS(=O)(=O)c4ccc(NCC5CCOCC5)c([N+](=O)[O-])c4)c(Oc4cnc5[nH]ccc5c4)c3)CC2)=C(c2ccc(Cl)cc2)C1 + CC(Nc1ncnc2nc[nH]c12)c1cc2cccc(Cl)c2c(=O)n1-c1ccccc1
5.69 µM: IC50 (second compound 0.0316 µM)
active: viability, T/C (second compound 0.0316 µM, first compound 10 µM) 6.26% | viability, T/C (second compound 0.1 µM, first compound 10 µM) 2.9% | viability, T/C (second compound 0.316 µM, first compound 10 µM) 2.85% | viability, T/C (second compound 1 µM, first compound 10 µM) 2.36% | viability, T/C (second compound 3.16 µM, first compound 10 µM) 2.35% | viability, T/C (second compound 10 µM, first compound 10 µM) 5.61%
5.45 µM: IC50 (second compound 10 µM)
inactive: viability, T/C [1] 87.4% | viability, T/C [2] 101% | viability, T/C (second compound 0.0316 µM, first compound 0.316 µM) 95.4% | viability, T/C (second compound 0.0316 µM, first compound 1 µM) 96.6% | viability, T/C (second compound 0.0316 µM, first compound 3.16 µM) 96.2% | viability, T/C [3] 89.9% | viability, T/C [4] 98.7% | viability, T/C (second compound 0.1 µM, first compound 0.316 µM) 87.5% | viability, T/C (second compound 0.1 µM, first compound 1 µM) 99.6% | viability, T/C (second compound 0.1 µM, first compound 3.16 µM) 106% | viability, T/C [5] 116% | viability, T/C [6] 92.6% | viability, T/C (second compound 0.316 µM, first compound 0.316 µM) 89.8% | viability, T/C (second compound 0.316 µM, first compound 1 µM) 95.4% | viability, T/C (second compound 0.316 µM, first compound 3.16 µM) 96.7% | viability, T/C [7] 96.5% | viability, T/C [8] 83.6% | viability, T/C (second compound 1 µM, first compound 0.316 µM) 103% | viability, T/C (second compound 1 µM, first compound 1 µM) 90.3% | viability, T/C (second compound 1 µM, first compound 3.16 µM) 91.2% | viability, T/C [9] 81.8% | viability, T/C [10] 84.7% | viability, T/C (second compound 3.16 µM, first compound 0.316 µM) 98.8% | viability, T/C (second compound 3.16 µM, first compound 1 µM) 97.1% | viability, T/C (second compound 3.16 µM, first compound 3.16 µM) 76% | viability, T/C [11] 79.6% | viability, T/C [12] 94% | viability, T/C (second compound 10 µM, first compound 0.316 µM) 86.8% | viability, T/C (second compound 10 µM, first compound 1 µM) 94.7% | viability, T/C (second compound 10 µM, first compound 3.16 µM) 93.1%
4.74 µM: IC50 (second compound 3.16 µM)
5.61 µM: IC50 (second compound 0.316 µM)
5.39 µM: IC50 (second compound 1 µM)
5.6 µM: IC50 (second compound 0.1 µM)
